Here are results for two compounds from patent US20160022710A1, “PRENATAL AND LACTATION SUPPLEMENTS TO ENHANCE CENTRAL NERVOUS SYSTEM DEVELOPMENT OF OFFSPRING” (ABBOTT LABORATORIES, priority 2013, published 2016).

The data set in a line: carotenoids in neonatal brain samples. The settings on record: neonatal brain samples studied by the Applicants.

In the case of `CC(C)=CCC/C(C)=C/C=C/C(C)=C/C=C/C(C)=C/C=C/C=C(C)/C=C/C=C(C)/C=C/C=C(\C)CCC=C(C)C` [lycopene], the “carotenoid occurrence in neonatal brain samples” value is recorded as “very few neonatal brain samples are found to contain detectable levels”.
To `CC1=CC(O)CC(C)(C)[C@H]1/C=C/C(C)=C/C=C/C(C)=C/C=C/C=C(C)/C=C/C=C(C)/C=C/C1=C(C)C[C@@H](O)CC1(C)C` (stereo partly drawn) [trans-lutein] belongs “predominant carotenoid in the majority of neonatal brain samples”.
